Data published in patent US20240209371A1, “COMPOSITIONS AND METHODS FOR TREATING CANCER” (Dana-Farber Cancer Institute, Inc., priority 2021, published 2024).

How the values were obtained:
Assay type in all cases: cell-based
Q61 mutant cells = assay: Exon skipping by PS+2′MOE antisense oligos in Q61 mutant cells; conditions: in vitro
Protocol: RNA was extracted using the RNeasy Mini kit (Qiagen) and cDNA was synthesized using the QuantiTect Reverse Transcription Kit (Qiagen). Isoforms were amplified using gene-specific-primers (FIG. 24) and amplicons were resolved on a 2% agarose gel. Isoforms were characterized by Sanger sequencing.
RAS mutant cell lines in culture media were treated in suspension with indicated concentrations of morpholino and 3-6 μM endo-porter (Gene Tools). Duration of treatment was 2 days for RNA experiments, 3 days for western blot, and 8 days for growth-inhibition assay based on previously published treatment protocols with KRAS selective inhibitors against RAS mutant cells^4. In all experiments using full PS+2′MOE antisense oligos, medium was enriched with Ca^2+. Ca^2+ enrichment of medium potentiates the in vitro activity of multiple types of oligonucleotides and is more reflective of in vivo conditions than conventional transfection methods^42. Duration of treatment was 2 days for RNA experiments, 6 days for western blot, and 8 days for growth-inhibition assay.

mutant KRAS pre-mRNA = assay: NGS of remaining full-length KRAS transcript in SW948 cells; conditions: dose dependent, decreased from 44%
From the text: The use of mutant selective antisense oligos can be used to induce aberrant splicing only in tumor cells, but not in normal cells lacking the Q61 mutation, minimizing off target toxicity (FIG. 4 panel a). Using this approach, we induced skipping of whole exon 3 in the KRAS GQ60GK lung cancer CALU6 cell line, in a dose dependent manner (FIG. 4 panel b). […] To assess the selectivity of the morpholino for the KRAS mutant over wild type transcript, the identity of the full-length pre-mRNA contributing to the exon 3 spliced mRNA following morpholino treatment needed to be determined. […] We PCR-amplified KRAS cDNA generated from morpholino treated SW948 cells, separated it by gel electrophoresis and analyzed by NGS the remaining full-length transcript, in order to obtain the ratio of mutant versus wild type KRAS pre-mRNA targeted by the morpholino. […] We next evaluated the effect of these oligos on cell growth. As not all RAS mutant cell lines are dependent on RAS signaling for their growth^28, we determined RAS dependency of each of the Q61 mutant cell lines using KRAS, NRAS or HRAS specific siRNAs, and compared our findings to published gene effect scores for dependency by RNAi and CRISPR knock out obtained from Depmap (depmap.org) (FIG. 4 panel e). […] We also evaluated MEK inhibitor sensitivity in a panel of these cell lines using trametinib (FIG. 10 panel b). […]

[1] = system: CRISPR-modified PC9 cell lines; assay: Cell viability assay of parental or CRISPR-modified PC9 cells with osimertinib
Protocol: Parental or CRISPR-modified PC9 cell lines (1×10^3 cells) were plated in 384-well plates. After 24 hours, cells were treated with drugs at the indicated concentrations for 72 hours. Endpoint cell viability assays were performed using Cell Titer Glo (Promega). RAS mutant cell lines (2×10^3 cells) were seeded in 384 ultra-low attachment plates as suspension cells and evaluated using 3D-Cell Titer Glo (Promega). RAS mutant cells were treated with trametinib for 3 days and with antisense oligos or siRNA for 8 days.

ERK1/2 = assay: Western blot after osimertinib treatment in PC9 cells
Protocol: (§1) Cells were lysed with RIPA buffer (Boston Bioproducts) supplemented with complete Mini EDTA-free Protease inhibitor cocktail (Roche) and PhoSTOP phosphatase inhibitor cocktail (Roche). The total cell lysate (20 ug) was subjected to SDS polyacrylamide gel electrophoresis and transferred to Immobilon-P polyvinylidene difluoride membranes (Bio-Rad Laboratories). Antibodies are listed in supplementary table 10. RAS-GTP was evaluated using the Active Ras Detection Kit (#8821, Cell Signaling Technology). Cells were cultured with media containing 0.1% FBS with or without 1 μM osimertinib for 24 hours, and 80 ug of GST-Raf1-RBD and 500 ug of protein lysates were used according to the manufacturer's instructions.

RAS-GTP = RAS-GTP assay in KRAS expressing PC9 cell lines
Protocol: as §1

Question: With “PS+MOE 1-3: 20nt PS+2′MOE antisense oligo; 1-3 sequence 5′-ACTCCTCTTTGCCTGCTGTG-3′ (all 2'-MOE, all phosphorothioate, methylation of C not given here)” as the compound, how does the “mutant selective exon skipping compared with morpholino oligos” value (Q61 mutant cells) read?
Answer: mutant selective skipping at a much lower concentration

Question: With “mor-4: morpholino targeting KRAS Q61L; M4 / mor-4-4 sequence 5′-GTACTCCTCTAGACCTGCTGTGTCG-3′ (all phosphorodiamidate morpholino (PMO))” as the compound, how does the “fraction of mutant KRAS pre-mRNA within the full-length transcript species” value (mutant KRAS pre-mRNA) read?
Answer: 22%

Question: `C=CC(=O)Nc1cc(Nc2nccc(-c3cn(C)c4ccccc34)n2)c(OC)cc1N(C)CCN(C)C` [osimertinib] was tested. Which “effect of osimertinib on KRAS G12C, G12D, A146T, or BRAF V600E clones” value ([1]; 1 μM osimertinib) did it give?
Answer: largely unaffected

Question: What about the “osimertinib sensitivity of PC9 with heterozygous KRAS GQ60GK or Q61H” value ([1]; heterozygous mutations) of the same compound?
Answer: resistance

Question: And the “osimertinib sensitivity of PC9 clones harboring KRAS Q61K without silent mutation” value ([1]; single-cell clones)?
Answer: growth inhibition comparable to that of parental PC9 cells

Question: What about the “ERK1/2 activation following osimertinib, KRAS GQ60GK c.180_181 delinsAA cells” value (ERK1/2; PC9 KRAS GQ60GK) of the same compound?
Answer: persistent ERK1/2 activation

Question: What about the “ERK1/2 activation following osimertinib, KRAS Q61K alone cells” value (ERK1/2; PC9 KRAS Q61K alone) of the same compound?
Answer: not in cells expressing KRAS Q61K alone

Question: What about the “RAS-GTP levels after osimertinib, KRAS GQ60GK” value (RAS-GTP; PC9 KRAS GQ60GK) of the same compound?
Answer: minimally affected

Question: What about the “RAS-GTP after osimertinib, KRAS Q61K single mutant or KRAS wild type parental PC9” value (RAS-GTP; PC9 Q61K or parental) of the same compound?
Answer: decrease in RAS-GTP
